The term IC50 denotes the concentration needed to halve the response being measured.

Each structure is given as a SMILES string. Like-named read-outs stand apart in the source and are kept apart here.

One assay addresses T1, mushroom tyrosinase (Agaricus bisporus, UniProt C7FF04).
T1 construct: purchased Sigma-Aldrich (St. Louis, MO, USA)
Nature of the assay: Mushroom tyrosinase activity inhibition assay (L-tyrosine or L-dopa as substrate). It counts as biochemical. The note with it: mushroom tyrosinase, 37 °C, mean ± SEM of triplicates. On the procedure:
3.3. Tyrosinase Activity Assay Using Mushroom Tyrosinase
The tyrosinase inhibitory activity of the 2-phenylbenzoxazoles was evaluated using a mushroom tyrosinase activity assay, following a previously described method. An aqueous substrate mixture, consisting of phosphate buffer (pH 6.5; 17.2 mM) and L-tyrosine or L-dopa (345 μM), was prepared. A 96-well plate containing the test sample in dimethyl sulfoxide (DMSO) solution (10 μL), aqueous mushroom tyrosinase solution (20 μL; 200 units), and aqueous substrate mixture (170 μL) in each well was incubated at 37 °C for 15 min for L-dopa and 30 min for L-tyrosine, respectively.

A short description of assay [1]: ABTS radical cation scavenging assay. The following applies: 100 μM. On the procedure: For ABTS^+• scavenging experiments, ABTS^+• was generated by oxidizing ABTS using potassium persulfate. All test samples (Trolox [TR; positive material] and 1–15) were used at a final concentration of 100 μM. […] Both compounds share a common catechol structure. […] Similar results were obtained in the DPPH radical scavenging experiment. […] Compounds 4, 9, and 14, bearing a 4-hydroxy-3-methoxyphenyl, scavenged ABTS^+• moderately (23–51%).
3.15. 2,2′-Azino-bis(3-ethylbenzothiazoline-6-sulfonic Acid) (ABTS) Radical Cation Scavenging Assay
The effect of the 2-phenylbenzoxazole compounds 1–15 on radical scavenging was assessed using an ABTS assay, as previously reported. An ABTS aqueous solution (7 mM) was mixed with a K2S2O8 aqueous solution (2.45 mM) in equal volumes (each 20 mL) and incubated in the dark for 20 h at 25 °C to generate ABTS^+•. The ABTS^+• solution was then diluted with pure EtOH to adjust the absorbance of the solution to 0.7 ± 0.02 at 730 nm. The test samples (1–15 and Trolox [positive control]) were dissolved in a co-solvent of EtOH and DMSO (9:1, v/v) to make a 1 mM solution. The diluted ABTS^+• solution was mixed with the test sample solution at a volume ratio of 9:1 (90 μL:10 μL) and the mixture was stored for 2 min at 20 °C in the dark. The optical density was measured at 730 nm using an ELISA reader at 1 min intervals for 10 min. All test samples were used at a final concentration of 100 µM.
ABTS^+• radical scavenging activity (%) = [(ODcon − ODsam)/ODcon] × 100, where ODsam and ODcon represent the absorbances of the test sample and the control, respectively.

Assay [2] can be described thus: DPPH radical scavenging assay. The note with it: 500 μM, 30 min in the dark. The protocol: The DPPH radical scavenging activity was assessed by mixing DPPH solution with compounds 1–15 and incubating them in the dark for 30 min. All test samples were evaluated at 500 μM.
3.14. 2,2′-Diphenyl-1-picrylhydrazyl (DPPH) Radical Scavenging Assay
As previously reported, the ability of compounds 1–15 to remove DPPH radicals was evaluated. A 0.2 mM methanolic DPPH solution was mixed with a 5 mM L-ascorbic acid aqueous solution or 5 mM DMSO solution of 1–15 at a ratio of […] (v/v, 180 μL:20 μL) in each well of a 96-well microplate. After incubating the microplate in the dark for 30 min, the optical density of each well was measured at 517 nm using an ELISA reader. DPPH scavenging activity (%) = (OD[control] − OD[sample]) × 100/OD[control].
In general terms: The DPPH test is a chemical assay of radical scavenging.

The nature of assay [3]: ROS scavenging assay (SIN-1/DCFH). The following applies: 40 μM; SIN-1 10 μM; 30 min. On the procedure:
For ROS scavenging experiments, test samples (1–15 and Trolox [positive control]; 40 μM) containing 3-morpholinosydnonimine (SIN-1; 10 μM) were mixed with a 2′,7′-dichlorodihydrofluorescein (DCFH) solution. After 30 min, the ROS scavenging activity of the test samples was assessed.
3.16. Reactive Oxygen Species (ROS) Scavenging Assay
The ability of compounds 1–15 to remove ROS was assayed as previously reported. […] A 3-morpholinosydnonimine (SIN-1) solution (10 μL, 250 μM) and phosphate buffer (180 μL) were mixed with a test sample (1–15; 10 μL, 1 mM) in DMSO solution or Trolox (10 μL, 1 mM; positive control) in each well of a 96-well black plate and left in the dark 25 °C for 5 min. The SIN-1-test sample mixture was then combined with the generated DCFH solution (50 μL). Fluorescence was measured in 5 min intervals for 30 min at 530 nm using a microplate reader (Berthold Advances GmbH & Co., Bad Wildbad, Germany) with excitation at 485 nm.

In assay [4] the test system is tyrosinase activity in zebrafish larvae. Nature of the assay: Tyrosinase activity in zebrafish larvae. It counts as in vivo, zebrafish (Danio rerio). The note with it: compound 8 0.025 mM; kojic acid 20 mM; treated 28 hpf, read 74 hpf. On the procedure:
(§1) . Zebrafish embryos obtained by natural mating were dechorionated at 24 hpf and treated with compound 8 (0.025 mM) or kojic acid (20 mM) at 28 hpf. After 46 h, the melanin content and tyrosinase activity were determined.
(§2) 3.13. Measurement of Melanin Content and Tyrosinase Activity in Zebrafish Larvae
(§3) The effects of the 2-phenylbenzo[d]oxazole compound 8 on the melanin content and tyrosinase activity in the zebrafish larvae were assessed using a previously defined procedure with minor modifications. To quantify the melanin content in the zebrafish larvae, zebrafish embryos were obtained through natural mating and operated in a similar manner to the in vivo depigmentation experiment (25 zebrafish embryos per well in a 24-well plate; dechorionation at 24 hpf; test sample treatment (8 [0.025 mM] and kojic acid [20 mM; positive control]) at 28 hpf). Melanin quantification and tyrosinase activity were quantified at 74 hpf. For melanin quantification, the zebrafish larvae were lysed in RIPA buffer (Biosesang, Gyeonggi-do, Korea) and homogenized using a sonicator. […] The absorbance was measured at 405 nm using a microplate reader. For the tyrosinase activity measurement, the supernatants were transferred to new Eppendorf tubes and the protein was quantified using a Pierce BCA protein assay kit, with the absorbance being measured at 570 nm using a microplate reader. […]

Assay [5] concerns B16F10 tyrosinase in situ. The following applies: compounds 1, 2, 5 μM; kojic acid 5 μM; α-MSH + IBMX 72 h; excess L-dopa.
Protocol: To evaluate the effect of the compounds on in situ tyrosinase activity, an experiment using B16F10 cells was performed as previously described [34, 35]. […] Excess L-dopa was added to increase their melanin production prior to the acquisition of cell images.
In Situ Tyrosinase Activity Assay Using B16F10 Cells and L-dopa
In situ tyrosinase activity was measured in B16F10 cells using L-dopa, as reported previously [34]. […] The cells were processed as follows: (1) fixing with 4% paraformaldehyde for 40 min, (2) washing with PBS, and (3) permeabilizing with 0.1% Triton X-100 for 2 min. After washing with PBS, the cells were stained with L-dopa (2 mM; 500 μL) at 37 °C for 2 h. Stained images were collected using a camera connected to a microscope (Motic, Hong Kong).
Assay [6] concerns zebrafish larvae. In words: In vivo depigmentation experiment using zebrafish embryos. The note with it: kojic acid 20 mM; compound 8 0.025 mM; compound 13 0.025 and 0.05 mM; 76 hpf.
Protocol: Zebrafish embryos were used in this study. […] The zebrafish embryos were obtained through natural mating in our laboratory. The chorion of the zebrafish embryos was removed 24 h post-fertilization (hpf).
In Vivo Depigmentation Experiment Using Zebrafish Embryos
A depigmentation experiment was performed using zebrafish embryos, as previously described [38, 49, 50]. Wild-type zebrafish (Danio rerio) were maintained in a fish tank at 28 °C and fed with dried brine shrimp (Artemia salina, San Francisco Bay Brand, San Francisco, CA, USA) three times daily. The zebrafish embryos were obtained through natural mating in mating cages. The obtained zebrafish embryos were transferred to a 90 mm culture dish containing 200 μL of E3-methylene blue (MB) solution, consisting of 0.001% MB, 0.17 mM KCl, 0.33 mM CaCl2, 0.33 mM MgSO4, and 5 mM NaCl, and incubated in an incubator set at 28 °C. At 24 h post-fertilization (hpf), the zebrafish embryos were dechorionated using pronase (Sigma-Aldrich, St. Louis, MO, USA). […] The 48-well plates were incubated in an incubator set at 28 °C for 48 h. At 76 hpf, the zebrafish larvae were mounted on a 1% methylcellulose block after anesthesia with tricaine methanesulfonate (Thermo Fisher Scientific, Waltham, MA, USA), and photographs of the zebrafish larvae were obtained using a SMZ745T stereoscopic microscope (Nikon, Tokyo, Japan). The pigmented areas of the zebrafish larvae were determined using the CS analyzer 3.0 image analysis software (ATTO, Tokyo, Japan).
The test system of assay [7] is zebrafish larvae. Nature of the assay: Melanin content in zebrafish larvae. The assay is classed as in vivo, zebrafish (Danio rerio). The note with it: compound 8 0.025 mM; kojic acid 20 mM; treated 28 hpf, read 74 hpf. The protocol: as §1, §2, §3
[8] abbreviates: substrate L-dopa, 15 min, read-out: IC50 Values, L-Dopa.
Setting [9] is: substrate L-tyrosine, 30 min, read-out: IC50 Values, L-Tyrosine.

T1 sequence (C7FF04 1-392 limits assumed): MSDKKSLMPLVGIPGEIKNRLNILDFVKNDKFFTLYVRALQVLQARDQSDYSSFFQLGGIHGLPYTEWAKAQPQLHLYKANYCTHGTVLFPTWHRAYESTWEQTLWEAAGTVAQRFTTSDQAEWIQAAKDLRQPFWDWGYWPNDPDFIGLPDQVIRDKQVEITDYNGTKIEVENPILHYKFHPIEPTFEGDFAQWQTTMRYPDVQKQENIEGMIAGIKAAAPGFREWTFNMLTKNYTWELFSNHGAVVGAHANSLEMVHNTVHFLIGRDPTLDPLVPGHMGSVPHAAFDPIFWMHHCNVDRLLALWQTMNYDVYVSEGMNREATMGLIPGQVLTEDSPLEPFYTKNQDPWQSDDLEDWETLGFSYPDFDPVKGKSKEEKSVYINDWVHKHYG

For the compound `Cc1ccc2nc(-c3ccc(O)cc3)oc2c1` [Compound 1, 4-(6-Methylbenzo[d]oxazol-2-yl)phenol], the figures for the IC50 on mushroom tyrosinase (setting [8]) and at mushroom tyrosinase (setting [9]) were greater than 200 µM and 153 ± 14.3 µM, respectively.
`COc1ccc(-c2nc3ccc(C)cc3o2)c(OC)c1` [Compound 2, 2-(2,4-Dimethoxyphenyl)-6-methylbenzo[d]oxazole]: the IC50 at mushroom tyrosinase (setting [8]) and on mushroom tyrosinase (setting [9]) was greater than 200 µM in each case. Also, in assay [1], the “ABTS+• scavenging activity (% inhibition)” value is listed as “less than 5%”.
`COc1ccc(-c2nc3ccc(C)cc3o2)cc1O` [Compound 4, 2-Methoxy-5-(6-methylbenzo[d]oxazol-2-yl)phenol]: the concentration for half-maximal inhibition (IC50) at mushroom tyrosinase (setting [8]) and on mushroom tyrosinase (setting [9]) was greater than 200 µM each time.
`Cc1ccc2nc(-c3ccc(O)c(O)c3)oc2c1` [Compound 5, 4-(6-Methylbenzo[d]oxazol-2-yl)benzene-1,2-diol]: the “DPPH radical scavenging activity (in words)” value in assay [2] is listed as “weak DPPH radical scavenging effect”. The ROS scavenging activity result in assay [3] was “strong ROS scavenging efficacy”. The IC50 on mushroom tyrosinase (setting [8]) amounted to 187 ± 30.3 µM; at mushroom tyrosinase (setting [9]), 144 ± 3.1 µM. In addition, the “ABTS+• scavenging activity (% inhibition)” value in assay [1] is on record as 13%.
Consider `Oc1ccc(-c2nc3ccc(Cl)cc3o2)cc1` [Compound 6, 4-(6-Chlorobenzo[d]oxazol-2-yl)phenol], for which the values for the IC50 on mushroom tyrosinase (setting [8]) and at mushroom tyrosinase (setting [9]) were greater than 200 µM and 57.5 ± 8.78 µM, respectively.
For `COc1ccc(-c2nc3ccc(Cl)cc3o2)c(OC)c1` [Compound 7, 6-Chloro-2-(2,4-dimethoxyphenyl)benzo[d]oxazole], the IC50 at mushroom tyrosinase (setting [8]) and at mushroom tyrosinase (setting [9]) was greater than 200 µM each time. In assay [1], the “ABTS+• scavenging activity (% inhibition)” value is “less than 5%”.
`COc1ccc(-c2nc3ccc(Cl)cc3o2)cc1O` [Compound 9, 5-(6-Chlorobenzo[d]oxazol-2-yl)-2-methoxyphenol]: the IC50 at mushroom tyrosinase (setting [8]) and on mushroom tyrosinase (setting [9]) was greater than 200 µM throughout.
Regarding `Oc1ccc(-c2nc3ccc(Cl)cc3o2)cc1O` [Compound 10, 4-(6-Chlorobenzo[d]oxazol-2-yl)benzene-1,2-diol], the “DPPH radical scavenging activity” value in assay [2] came to 86%. The ROS scavenging activity result in assay [3] is “strong to moderate ROS-scavenging activity”. For the same compound, the figures for the half-inhibitory concentration (IC50) on mushroom tyrosinase (setting [8]) and at mushroom tyrosinase (setting [9]) were greater than 200 µM and 59 ± 4.74 µM, respectively. Also, in assay [1], the “ABTS+• scavenging activity (% inhibition)” value was found to be 81%.
On to `Cc1ccc2oc(-c3ccc(O)cc3)nc2c1` [Compound 11, 4-(5-Methylbenzo[d]oxazol-2-yl)phenol], for which the IC50 on mushroom tyrosinase (setting [8]) is greater than 200 µM; at mushroom tyrosinase (setting [9]), 76.8 ± 3.84 µM.
Turning to `COc1ccc(-c2nc3cc(C)ccc3o2)c(OC)c1` [Compound 12, 2-(2,4-Dimethoxyphenyl)-5-methylbenzo[d]oxazole], the IC50 on mushroom tyrosinase (setting [8]) and on mushroom tyrosinase (setting [9]) was greater than 200 µM each time. In assay [1], the “ABTS+• scavenging activity (% inhibition)” value is “less than 5%”.
Turning to `COc1ccc(-c2nc3cc(C)ccc3o2)cc1O` [Compound 14, 2-Methoxy-5-(5-methylbenzo[d]oxazol-2-yl)phenol], the IC50 is greater than 200 µM at mushroom tyrosinase (setting [8]) and 146 ± 16.4 µM on mushroom tyrosinase (setting [9]).
Consider `Cc1ccc2oc(-c3ccc(O)c(O)c3)nc2c1` [Compound 15, 4-(5-Methylbenzo[d]oxazol-2-yl)benzene-1,2-diol], for which the “DPPH radical scavenging activity” value in assay [2] came to 86%. Besides, the ROS scavenging activity entry in assay [3] was “strong ROS scavenging efficacy comparable to that of Trolox”. In addition, the concentration for half-maximal inhibition (IC50) is greater than 200 µM on mushroom tyrosinase (setting [8]) and 80.3 ± 5.24 µM at mushroom tyrosinase (setting [9]). Also, in assay [1], the “ABTS+• scavenging activity (% inhibition)” value worked out at 83%.
Regarding `O=C1O[C@H]([C@@H](O)CO)C(O)=C1O` [L-ascorbic acid, reference compound], the “DPPH radical scavenging activity” value in assay [2] is recorded as 96%.
As to `Cc1c(C)c2c(c(C)c1O)CCC(C)(C(=O)O)O2` (centres unmarked) [Trolox, reference compound], the ROS scavenging activity result in assay [3] is given as “most potent ROS scavenging activity”. In addition, the “ABTS+• scavenging activity (% inhibition)” value in assay [1] is on record as 99%.
With `O=c1cc(CO)occ1O` [kojic acid, Kojic acid, reference compound], the “% tyrosinase activity in zebrafish larvae, vs untreated control (100%)” value in assay [4] is given as 57%. For the same compound, the “melanin formation, in situ tyrosinase activity in B16F10 cells” value in assay [5] is listed as “markedly decreased melanin formation”. Besides, in the assay on zebrafish larvae [6], the “depigmentation effect on zebrafish larvae (photographs)” value was “reduced pigmentation in all regions except the eyes” and the “pigmentation area of zebrafish larvae (CS analyzer)” value is on record as “decreased the pigmentation area compared to the control”. In addition, the “melanin content of zebrafish larvae, vs untreated control (100%)” value in the assay with zebrafish larvae [7] was found to be 53%.

(Values after publication PMC11396935, “Exploration of Compounds with 2-Phenylbenzo[d]oxazole Scaffold as Potential Skin-Lightening Agents through Inhibition of Melanin Biosynthesis and Tyrosinase Activity” (Molecules, 2024).)
